According to US20250236608A1, “EGFR INHIBITORS” (Blueprint Medicines Corporation, priority 2022, published 2025):

Tests used:
EGFR L858R = EGFR L858R (Homo sapiens (Human), UniProt P00533, L858R); assay: Biochemical EGFR inhibition assay, EGFR L858R; settings: Caliper mobility shift; 1.0 mM ATP or ATP Km; read-out: Enz EGFR_L858R IC50
EGFR (d746-750) = EGFR (d746-750) (Homo sapiens (Human), UniProt P00533, DEL746-750); assay: Biochemical EGFR inhibition assay, EGFR (d746-750); settings: Caliper mobility shift; 1.0 mM ATP or ATP Km; read-out: Enz EGFR_Exon19-del746-750 IC50
Chain of EGFR (d746-750) (P00533 other isoform, or with tags, fused parts or gaps del 1-694/del 746-750 limits assumed): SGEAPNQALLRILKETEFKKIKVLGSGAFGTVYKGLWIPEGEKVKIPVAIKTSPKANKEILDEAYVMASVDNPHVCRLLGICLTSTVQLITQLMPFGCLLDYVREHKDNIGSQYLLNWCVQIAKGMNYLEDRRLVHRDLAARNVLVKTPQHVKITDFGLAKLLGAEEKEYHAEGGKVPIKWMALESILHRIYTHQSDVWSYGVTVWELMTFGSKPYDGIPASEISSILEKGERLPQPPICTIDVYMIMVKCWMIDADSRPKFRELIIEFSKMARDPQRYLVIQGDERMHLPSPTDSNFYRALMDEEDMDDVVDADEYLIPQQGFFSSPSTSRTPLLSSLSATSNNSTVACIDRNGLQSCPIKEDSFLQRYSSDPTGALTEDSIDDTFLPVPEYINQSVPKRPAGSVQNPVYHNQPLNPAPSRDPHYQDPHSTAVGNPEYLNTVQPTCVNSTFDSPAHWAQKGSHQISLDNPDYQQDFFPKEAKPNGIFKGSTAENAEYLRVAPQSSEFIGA

[1] = target: pEGFR (Tyr1068) in PC-9 cells (Ex19Del) (Homo sapiens (Human), UniProt P00533, DEL746-750); assay: PC-9 pEGFR AlphaLISA assay; type: cell-based; settings: 4 hours incubation, p-EGFR (Tyr1068) AlphaLISA, read-out: Ext pEGFR_PC-9 Ex19Del IC50
Chain of pEGFR (Tyr1068) in PC-9 cells (Ex19Del) (P00533 other isoform, or with tags, fused parts or gaps del 746-750): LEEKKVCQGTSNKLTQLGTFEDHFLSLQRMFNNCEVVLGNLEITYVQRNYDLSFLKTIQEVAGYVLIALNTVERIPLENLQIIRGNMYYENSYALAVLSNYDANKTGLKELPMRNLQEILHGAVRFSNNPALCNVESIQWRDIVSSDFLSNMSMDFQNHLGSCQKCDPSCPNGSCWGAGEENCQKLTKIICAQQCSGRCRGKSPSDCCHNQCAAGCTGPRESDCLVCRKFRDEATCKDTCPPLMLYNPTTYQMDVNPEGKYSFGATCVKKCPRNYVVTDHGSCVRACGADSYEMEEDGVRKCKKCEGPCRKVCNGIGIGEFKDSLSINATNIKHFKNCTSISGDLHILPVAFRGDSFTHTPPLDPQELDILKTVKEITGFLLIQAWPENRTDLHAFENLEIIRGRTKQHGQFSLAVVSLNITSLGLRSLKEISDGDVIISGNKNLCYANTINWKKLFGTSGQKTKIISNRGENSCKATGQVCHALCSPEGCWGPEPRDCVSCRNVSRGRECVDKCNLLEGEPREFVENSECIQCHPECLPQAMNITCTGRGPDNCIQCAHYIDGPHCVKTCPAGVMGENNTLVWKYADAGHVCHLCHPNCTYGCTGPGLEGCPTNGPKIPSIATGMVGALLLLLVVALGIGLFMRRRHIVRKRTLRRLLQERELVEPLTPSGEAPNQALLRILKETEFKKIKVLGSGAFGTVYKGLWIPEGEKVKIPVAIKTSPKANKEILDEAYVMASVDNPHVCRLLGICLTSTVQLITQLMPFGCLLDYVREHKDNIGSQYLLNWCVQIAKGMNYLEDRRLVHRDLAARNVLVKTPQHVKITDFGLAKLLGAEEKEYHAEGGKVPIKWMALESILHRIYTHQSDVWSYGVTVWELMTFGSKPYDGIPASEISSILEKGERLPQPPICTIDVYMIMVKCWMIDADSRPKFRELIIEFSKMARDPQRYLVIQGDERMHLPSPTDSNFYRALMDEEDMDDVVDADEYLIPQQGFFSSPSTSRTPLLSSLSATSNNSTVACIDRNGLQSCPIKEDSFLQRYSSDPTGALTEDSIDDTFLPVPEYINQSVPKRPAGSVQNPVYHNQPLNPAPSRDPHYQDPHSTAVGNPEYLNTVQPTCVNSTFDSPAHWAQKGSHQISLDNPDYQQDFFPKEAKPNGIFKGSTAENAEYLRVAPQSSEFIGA
Procedure, shortened: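 Cells seeded in phenol-free DMEM with 10% FBS adhered overnight at 37° C./5% CO2, then were exposed for 4 hours to a 4-fold, 10-point compound dilution series. After lysis, phospho-EGFR was read by AlphaLISA SureFire Ultra, and IC50 was fitted from percent inhibition versus log concentration.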

Chain of EGFR L858R (P00533 25-1210 L858R): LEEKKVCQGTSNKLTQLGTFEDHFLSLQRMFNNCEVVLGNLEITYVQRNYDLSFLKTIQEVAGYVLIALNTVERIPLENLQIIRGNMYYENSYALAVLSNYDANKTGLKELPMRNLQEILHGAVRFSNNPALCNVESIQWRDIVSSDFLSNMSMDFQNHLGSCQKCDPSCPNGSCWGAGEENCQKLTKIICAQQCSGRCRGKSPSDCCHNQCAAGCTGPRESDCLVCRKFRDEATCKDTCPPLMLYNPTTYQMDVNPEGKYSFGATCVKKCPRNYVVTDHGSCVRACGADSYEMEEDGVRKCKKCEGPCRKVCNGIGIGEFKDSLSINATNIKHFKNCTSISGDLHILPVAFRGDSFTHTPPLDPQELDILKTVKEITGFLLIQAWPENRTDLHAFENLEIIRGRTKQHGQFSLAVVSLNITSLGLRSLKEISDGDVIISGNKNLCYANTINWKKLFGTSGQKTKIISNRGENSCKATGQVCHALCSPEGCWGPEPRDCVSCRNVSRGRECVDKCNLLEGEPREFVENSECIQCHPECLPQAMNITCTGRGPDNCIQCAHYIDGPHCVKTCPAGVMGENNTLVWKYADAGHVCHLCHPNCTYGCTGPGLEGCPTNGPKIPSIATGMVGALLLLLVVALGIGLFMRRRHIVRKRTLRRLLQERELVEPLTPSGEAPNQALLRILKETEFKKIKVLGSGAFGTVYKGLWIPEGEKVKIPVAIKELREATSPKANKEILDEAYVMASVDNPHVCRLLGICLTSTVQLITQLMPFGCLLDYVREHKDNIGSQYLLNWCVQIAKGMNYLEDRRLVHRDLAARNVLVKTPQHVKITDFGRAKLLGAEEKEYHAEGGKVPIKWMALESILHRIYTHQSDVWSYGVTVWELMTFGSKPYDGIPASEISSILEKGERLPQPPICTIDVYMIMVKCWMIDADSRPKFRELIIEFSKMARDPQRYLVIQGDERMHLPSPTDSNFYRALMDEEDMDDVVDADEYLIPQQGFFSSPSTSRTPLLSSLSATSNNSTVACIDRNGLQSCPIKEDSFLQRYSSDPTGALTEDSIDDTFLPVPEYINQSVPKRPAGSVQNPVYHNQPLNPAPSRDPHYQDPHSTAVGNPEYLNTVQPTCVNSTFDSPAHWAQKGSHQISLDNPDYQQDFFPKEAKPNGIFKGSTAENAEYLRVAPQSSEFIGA

IC50 (EGFR L858R) | IC50 (EGFR (d746-750)) | IC50 [1] | Structure (SMILES)
3.8 nM | 1 nM | 1.2 nM | Cn1cc(-c2ncnc3cc(OC4CC4)c(NC(=O)[C@]45COCC4C5)nc23)c(-c2ccccc2)n1 (stereo partly drawn) [Example 459, (1S)—N-[7-cyclopropoxy-4-(1-methyl-3-phenyl-1H-pyrazol-4-yl)pyrido[3,2-d]pyrimidin-6-yl]-3-oxabicyclo[3.1.0]hexane-1-carboxamide]
2.2 nM | 1.4 nM | 2.3 nM | COc1cc2ncnc(-c3cn(C)nc3-c3ccccc3)c2cc1NC(=O)C[C@@H]1CCCO1 [Example 281, (S)—N-(7-methoxy-4-(1-methyl-3-phenyl-1H-pyrazol-4-yl)quinazolin-6-yl)-2-(tetrahydrofuran-2-yl) acetamide]
2.4 nM | 1.5 nM | 2.2 nM | CCn1cc(-c2ncnc3cc(OC)c(NC(=O)[C@@]45COC[C@@H]4C5)cc23)c(-c2ccc(F)cc2)n1 [Example 334, (1R,5R)—N-(4-(1-ethyl-3-(4-fluorophenyl)-1H-pyrazol-4-yl)-7-methoxyquinazolin-6-yl)-3-oxabicyclo[3.1.0]hexane-1-carboxamide]
4.4 nM | 1.9 nM | 11.7 nM | COc1cc2ncnc(-c3cn(C)nc3-c3ccccc3)c2nc1O[C@H](C)c1nnnn1C [Example 46, (R)-7-methoxy-6-(1-(1-methyl-1H-tetrazol-5-yl)ethoxy)-4-(1-methyl-3-phenyl-1H-pyrazol-4-yl)pyrido[3,2-d]pyrimidine]
1.4 nM | 0.9 nM | 1.3 nM | COc1cc2ncnc(-c3cn(C)nc3-c3ccccc3)c2cc1NC(=O)c1cccc(C)n1 [Example 329, N-(7-methoxy-4-(1-methyl-3-phenyl-1H-pyrazol-4-yl)quinazolin-6-yl)-6-methylpicolinamide]
3 nM | 1.5 nM | 7.8 nM | COc1cc2ncnc(-c3cn(CCO)nc3-c3ccccc3)c2nc1NC(=O)c1cnn(C(F)(F)F)c1 [Example 415, N-(4-(1-(2-hydroxyethyl)-3-phenyl-1H-pyrazol-4-yl)-7-methoxypyrido[3,2-d]pyrimidin-6-yl)-1-(trifluoromethyl)-1H-pyrazole-4-carboxamide]
12 nM | 8.2 nM | 26 nM | COc1cc2ncnc(-c3cn(C)nc3-c3ccccc3)c2cc1NC(=O)[C@@H](C)CN(C)C (single isomer, unassigned) [Example 238, (S)-3-(dimethylamino)-N-(7-methoxy-4-(1-methyl-3-phenyl-1H-pyrazol-4-yl)quinazolin-6-yl)-2-methylpropanamide or (R)-3-(dimethylamino)-N-(7-methoxy-4-(1-methyl-3-phenyl-1H-pyrazol-4-yl)quinazolin-6-yl)-2-methylpropanamide]
3.8 nM | 1.8 nM | 6.4 nM | COc1cc2ncnc(-c3cn(C)nc3-c3ccccc3)c2cc1NC(=O)c1ccncc1C [Example 191, N-(7-methoxy-4-(1-methyl-3-phenyl-1H-pyrazol-4-yl)quinazolin-6-yl)-3-methylisonicotinamide]
4.8 nM | 0.5 nM | 0.4 nM | CCn1cc(-c2ncnc3cc(OC)c(NC(=O)[C@]45COC[C@H]4C5)nc23)c(-c2ccccc2)n1 (single isomer, unassigned) [Example 388, (1S,5S)—N-(4-(1-ethyl-3-phenyl-1H-pyrazol-4-yl)-7-methoxypyrido[3,2-d]pyrimidin-6-yl)-3-oxabicyclo[3.1.0]hexane-1-carboxamide or (1R,5R)—N-(4-(1-ethyl-3-phenyl-1H-pyrazol-4-yl)-7-methoxypyrido[3,2-d]pyrimidin-6-yl)-3-oxabicyclo[3.1.0]hexane-1-carboxamide]
